US10829466B2, “Stilbene derivative and preparation method thereof” (BEIJING INSTITUTE OF TECHNOLOGY, priority 2015, dated 2020)
Entries after “also recorded” stand apart in the source; their conditions may differ.

Experiments:
[1] = tested on: neurogenesis in rat hippocampus; test: Detection of neurogenesis in rat hippocampus by BrdU labeling (DAB immunohistochemistry); assay type: in vivo; settings: for BrdU labeling result: SD male rats, intraperitoneal injection 28 days, 4 mg/Kg, compared with the control group; for neurogenesis activity (in words): under the test conditions of the embodiments, same dose; for activity of proliferation promotion (BrdU positive) at low dose: low dose 0.5 mg/Kg, compared with blank sample (V), FIG. 10
From the text: Example 36: Detection of Neurogenesis in Rat Hippocampus by BrdU (5-Bromo-2-deoxy Uridine, 5-bromodeoxyuridine) Labeling
Experimental animals: 10-week-old SD male rats having a body weight of about 300 g are purchased. The rats are used in experiments one week after being adapted to the environment in an animal room. Experimental groups: control group, drug group. 2-3 rats per group. Experimental reagent: injection oil is used to dissolve a compound to be tested. Rates in the control group are injected with the same dose of dissolving oil.
Test method: intraperitoneal injection is carried out 28 days at the injection dose of 0.5 ml-1 ml each time. Dose: 4 mg/Kg.
1) marker injection: BrdU (dissolved in sterile saline solution at a concentration of 10 mg/mL) solution is injected intraperitoneally into rats. (For rats with different body weights, the injection dose of BrdU is 50 mg·Kg^−1, injection is carried out twice every 2 hour; the intraperitoneal injection 24 hours before anesthesia ends.
2) Anesthesia: Anesthesia is performed by intraperitoneal injection of sodium pentobarbital solution into rats. (For rats with different body weights, the injection dose of sodium pentobarbital is usually 70 mg·Kg^−1.)
3) Cardiac perfusion: cardiac perfusion with normal saline is performed according to a general method.
4) Taking of brain tissues: The heads of the rats are separated from the bodies with surgical forceps and scissors, and then the muscles and membrane tissues at the top of the skulls are removed and brains are then gently peeled from the skulls. The separated brains are soaked in 4% paraformaldehyde for 24-48 hours.
5) Dehydration of brain tissues: the fixed tissues are soaked with a 20% sucrose PBS solution for more than 72 hours, and then the brain tissues are soaked with a 30% sucrose PBS solution for more than 72 hours.
6) Frozen section: the brain tissues are cut into […] thick sections by a general coronal section procedure.
7) DAB immunohistochemistry step: DNA denaturation is carried out and the sections are transferred to a 24-well plate (pH 7.4) perfused with 0.1 M PBS. The brain sections are incubated with 1% H2O2 for 30 minutes to remove […]; the sections are then treated with a 2M HCl solution for 30 minutes at room temperature to denature them. After completion of the denaturation, the brain sections are immersed in a 0.1 M sodium borate (pH 8.5) solution for 5 minutes and rinsed twice; the brain sections are incubated in 0.5% PBST for 1 hour at room temperature, and then are blocked for 1 hour with a serum blocking solution on a shaker at room temperature, and the serum blocking solution is from the same source as a secondary antibody; the samples are treated on the shaker with a BrdU primary antibody overnight at 4° C., and the BrdU primary antibody is diluted with the blocking solution; the samples are incubated with the biotinylated secondary antibody IgG for 2 hours at room temperature; a C (ABC kit) solution is incubated at room temperature for 2 hours; finally, after 3 to 5 minutes of color development by the DAB kit, the samples are mounted by using a PVP mounting medium and then dried, and finally the experimental results are detected under a microscope.
The dose-effect relationships of different compounds is further tested according to the method of Example 36, and the compounds include WS-54 (E-4-isobutyrylamino-3′,4′-methylenedioxy-stilbene), WS-69 (E-4-Methylsulfonamino-3′,4′-methylenedioxy-stilbene), WS-70 (E-4-Benzamino-3′,4′-methylenedioxy-stilbene), and WS-74 (E-4-Cyclopropylformamino-3′,4′-methylenedioxy-stilbene).

HEK293 = test: In vitro cytotoxicity experiment (MTT, cell survival); assay type: cell-based; settings: for cell survival rates: HEK293, 24 h, MTT, at all three doses, low, medium and high (100 μM; 500 μM; 1000 μM); for neuronal cytotoxicity / neurotoxicity (in words): HEK293, in vitro test, FIG. 3
Experimental: Example 35: In Vitro Cytotoxicity Experiment the Experimental Cell Line is HEK293
Cells are cultured in a 96-well plate at a cell concentration of 5000/well. After 24 hours of cell culture, the drug treatment is performed and the experiment is carried out on two groups: the control group is added with DMSO with the same concentration as that for the experimental group; in the experimental group, each compound is tested at three doses of low, medium and high doses (100 μM; 500 μM; 1000 μM), and five parallels are tested at each dose; in the blank group, a complete medium is added with a compound to be tested with the same concentration as that for the experimental group. Constant temperature incubation is carried out for 24 h in a CO2 incubator, MTT with a final concentration of 0.5 mg/mL is then added; 4 hours later, 200 μL of DMSO solution is added, and the absorbance is measured at 490 nm. The cell survival is calculated according to the absorbance; Survival %=(Average concentration−Blank concentration)/(Average control concentration−Blank concentration)*100%.
Reference is made to FIG. 3 which illustrates an in vitro cytotoxicity test chart of a novel stilbene derivative according to an example of embodiments of the present invention.

| Compound | BrdU labeling result [1] | neuronal cytotoxicity / neurotoxicity (in words) (HEK293) | also measured |
| --- | --- | --- | --- |
| O=S(=O)(Nc1ccc(/C=C/c2ccc3c(c2)OCO3)cc1)c1ccccc1 [LSS-12, E-4-benzenesulfonylamino-3′,4′-methylenedioxy-stilbene] | positive | – | – |
| O=S(=O)(Nc1ccc(/C=C/c2ccc3c(c2)OCO3)cc1)C1CC1 [LSS-13, E-4-cyclopropylsulfonylamino-3′,4′-methylenedioxy-stilbene] | positive | – | – |
| O=C(Cc1ccccc1)Nc1ccc(/C=C/c2ccc3c(c2)OCO3)cc1 [LSS-16, E-4-phenylacetylamino-3′,4′-methylenedioxy-stilbene] | positive | – | – |
| CN(C)S(=O)(=O)Nc1ccc(/C=C/c2ccc3c(c2)OCO3)cc1 [LSS-17, E-4-(N,N-dimethylamino-sulfonamino)-3′,4′-methylenedioxy-stilbene] | positive | – | – |
| O=C(Nc1ccc(/C=C/c2ccc3c(c2)OCO3)cc1)c1ccccn1 [LSS-20, E-4-(2-pyridinecarboxamino)-3′,4′-methylenedioxy-stilbene] | positive | – | – |
| Nc1ccc(/C=C/c2ccc3c(c2)OCO3)cc1 [WS-4, E-4-amino-3′,4′-methylenedioxy-stilbene, reference compound] | – | high neuronal cytotoxicity | cell survival rates (HEK293): less than 50% |
| CC(=O)Oc1ccc(/C=C/c2ccc3c(c2)OCO3)cc1 [WS-10, E-4′-acetoxy-3,4-methylenedioxy-stilbene, reference compound] | – | – | neurogenesis activity (in words) [1]: no neurogenesis activity |
| Oc1ccc(/C=C/c2ccc3c(c2)OCO3)cc1 [WS-11, E-4′-hydroxy-3,4-methylenedioxy-stilbene, reference compound] | – | – | neurogenesis activity (in words) [1]: no neurogenesis activity |
| CC(=O)Nc1ccc(/C=C/C(=O)c2ccc3c(c2)OCO3)cc1 [WS-37, 4-acetylamino-3′,4′-methylenedioxychalcone, reference compound] | – | higher neuronal cytotoxicity | cell survival rates (HEK293): less than 10% |
| COc1ccc(/C=C/c2ccc(NC(C)=O)cc2)cc1OC [WS-43, E-4′-acetylamino-3,4-dimethoxy-stilbene, reference compound] | – | – | neurogenesis activity (in words) [1]: no significant neurogenesis activity |
| CC(=O)Nc1cccc(/C=C/c2ccc3c(c2)OCO3)c1 [WS-49, E-3-acetylamino-3′,4′-methylenedioxy-stilbene, reference compound] | – | higher neuronal cytotoxicity | cell survival rates (HEK293): ≤ 20% |
| CC(C)C(=O)Nc1ccc(/C=C/c2ccc3c(c2)OCO3)cc1 [WS-54, E-4-isobutyrylamino-3′,4′-methylenedioxy-stilbene] | positive | low neurotoxicity | activity of proliferation promotion (BrdU positive) at low dose [1]: significant activities of proliferation promotion |
| COc1cc(/C=C/c2ccc(OC(C)=O)cc2)cc(OC)c1 [WS-56, E-4-acetoxy-3′,5′-dimethoxy-stilbene, reference compound] | – | – | activity of proliferation promotion (BrdU positive) at low dose [1]: no significant activity |
| COc1cc(/C=C/c2ccc(NC(C)=O)cc2)cc(OC)c1 [WS-61, E-4-acetylamino-3′,5′-dimethoxy-stilbene, reference compound] | – | reduce neurotoxicity | – |
| CS(=O)(=O)Nc1ccc(/C=C/c2ccc3c(c2)OCO3)cc1 [WS-69, E-4-methanesulfonylamino-3′,4′-methylenedioxy-stilbene] | positive | low neurotoxicity | activity of proliferation promotion (BrdU positive) at low dose [1]: significant activities of proliferation promotion |
| O=C(Nc1ccc(/C=C/c2ccc3c(c2)OCO3)cc1)c1ccccc1 [WS-70, E-4-benzoylamino-3′,4′-methylenedioxy-stilbene] | positive | low neurotoxicity; also recorded: greatly reduced | activity of proliferation promotion (BrdU positive) at low dose [1]: significant activities of proliferation promotion |
| CC(=O)Nc1ccc(/C=C/c2ccc3c(c2)OCO3)cc1F [WS-71, E-3,4-methylenedioxy-3′-fluoro-4′-acetylamino-stilbene] | positive | low neurotoxicity | – |
| O=C(Nc1ccc(/C=C/c2ccc3c(c2)OCO3)cc1)c1cccs1 [WS-73, E-4-(2-thienyl)formamino-3′,4′-methylenedioxy-stilbene] | positive | low neurotoxicity | – |
| O=C(Nc1ccc(/C=C/c2ccc3c(c2)OCO3)cc1)C1CC1 [WS-74, E-4-cyclopropylcarboxamino-3′,4′-methylenedioxy-stilbene] | positive | low neurotoxicity; also recorded: greatly reduced | activity of proliferation promotion (BrdU positive) at low dose [1]: significant activities of proliferation promotion |
| CC(=O)Nc1ccc(C#Cc2ccc3c(c2)OCO3)cc1 [WS-77, E-4′-acetamino-3,4-methylenedioxy-diphenylacetylene, reference compound] | positive | – | neurogenesis activity (in words) [1]: weak neurogenesis activity |
| CC(=O)N(C)c1ccc(/C=C/c2ccc3c(c2)OCO3)cc1 [WS-80, E-4′-(N-acetyl-N-methylamino)-3,4-methylenedioxy-stilbene, reference compound] | negative | – | neurogenesis activity (in words) [1]: no significant neurogenesis activity |
| O=C(Nc1ccc(/C=C/c2ccc3c(c2)OCO3)cc1)C1CCC1 [WS-83, E-4-cyclobutylformamino-3′,4′-methylenedioxy-stilbene] | positive | – | – |
| E-4′-acetamino-3,4-methylenedioxy-diphenylethane [WS-35, reference compound] | – | – | neurogenesis activity (in words) [1]: no neurogenesis activity |
| E-4′-tertamino-3,4-methylenedioxy-stilbene [WS-60, reference compound] | – | – | neurogenesis activity (in words) [1]: weak neurogenesis activity |
